# Legend:
# ASCT1 = target: T1, ASCT1 (Homo sapiens, UniProt P43007); experiment: Radiolabelled uptake in oocytes expressing ASCT1; format: cell-based; details: 10 µM radiolabelled substrate, 10 min, room temperature
# T1 construct: expressed in transfected cells; host or cells: Xenopus laevis oocytes (cRNA injection)
# T1 sequence (P43007 1-532): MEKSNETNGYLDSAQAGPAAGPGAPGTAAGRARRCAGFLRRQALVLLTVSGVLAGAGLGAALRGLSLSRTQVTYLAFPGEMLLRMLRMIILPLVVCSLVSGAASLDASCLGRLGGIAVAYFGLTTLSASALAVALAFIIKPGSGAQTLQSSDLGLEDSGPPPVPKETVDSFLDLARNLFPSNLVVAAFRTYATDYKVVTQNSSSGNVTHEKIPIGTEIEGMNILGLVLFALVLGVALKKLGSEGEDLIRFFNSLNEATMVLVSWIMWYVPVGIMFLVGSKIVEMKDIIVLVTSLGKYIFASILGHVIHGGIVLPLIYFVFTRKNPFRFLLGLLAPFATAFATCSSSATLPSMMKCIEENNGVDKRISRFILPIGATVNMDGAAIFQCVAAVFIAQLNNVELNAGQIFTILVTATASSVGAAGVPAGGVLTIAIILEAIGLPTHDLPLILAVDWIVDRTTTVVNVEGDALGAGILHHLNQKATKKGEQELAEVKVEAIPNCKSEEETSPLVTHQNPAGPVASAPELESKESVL
# Description: Uptake of L-[^3H]amino acids (PerkinElmer Life Sciences) was measured in oocytes expressing wild-type and mutant ASCT1, and uninjected oocytes. Five oocytes were incubated in Cl^−-containing buffer with 10 µM L-[^3H]amino acids at room temperature. After 10 min, uptake was terminated by three rapid washes in ice-cold Cl^−-containing buffer followed by lysis in 50 mM NaOH and 1% SDS. L-[^3H]amino acids were measured by scintillation counting using a Trilux beta counter (PerkinElmer Life Sciences).
# Supplementary Figure 6. GltPh‐R397C, ASCT1 and ASCT2 are functional cysteine transporters. (a) […]
# 7.5) containing 1 µM of valinomycin and the 10µM 35S‐cysteine. […]
# All data represent the mean of triplicate
# (1 picture or pasted object on this page, not shown here)
# GltPh-G396S/R397C = target: T2, GltPh-G396S/R397C (Pyrococcus horikoshii, UniProt O59010, G396S/R397C); experiment: biochemical; format: biochemical
# T2 construct: hexa-His (N, cleaved yes); made in house; host or cells: Escherichia coli Top10 (pBAD)
# Description: Mutant and wild-type GltPh with an amino-terminal hexa-His tag were expressed in Escherichia coli Top10 cells (Invitrogen), which were grown in Luria broth medium at 37 °C. Ampicillin was added to a final concentration of 100 μg per ml. To induce expression of GltPh, 0.1% L-arabinose was added when cells reached an optical density of 0.6 at 660 nm, and cells were harvested 4 h post induction. Membranes were isolated, and then solubilised with n-dodecyl-β-D-maltopyranoside (C12M, Anatrace). Histidine containing proteins were purified using Ni^2+−nitrilotriacetic acid resin (Qiagen). The histidine tag was subsequently removed from GltPh by digestion with thrombin (10 U per mg protein) and the protein further purified on a Superdex 200 size exclusion column, where the detergent was exchanged to n-decyl-β-D-maltopyranoside (C10M, Anatrace).
# Pure protein was reconstituted into liposomes composed of 75% E. coli Polar Lipid Extract and 25% 1-palmitoyl-2-oleoyl-sn-glycero-3 ^−phopshocholine (Avanti Polar Lipids). Lipids were mixed, dried under nitrogen and resuspended in internal buffer (100 mM KCl, 20 mM HEPES-Tris pH 7.5) using brief sonication (Laboratory Supplies Co.). The lipid suspension was frozen in liquid nitrogen and thawed at room temperature several times. Liposomes were formed by extrusion through 400 nm polycarbonate membranes (Avanti Polar Lipids) and were treated with Triton X-100 at a 0.5:1 (w/w) detergent to lipid ratio prior to the addition of protein at 0.25 μg protein per mg lipid. The protein/lipid mixture was left at room temperature for 30 min before detergent was removed using SM2 Biobeads (BioRad). The mixture was then incubated with gentle agitation, with four consecutive batches of Biobeads (80 mg per ml). Proteoliposomes were concentrated by centrifugation at 150,000 g for 30 min, resuspended at 100 mg lipid per ml and either used immediately or flash-frozen in liquid nitrogen and stored at −80 °C.
# Mutant and wild-type GltPh-mediated transport of radiolabelled substrate was assayed by diluting proteoliposomes (100 mg lipid per ml) 133-fold into uptake buffer (100 mM NaCl, 20 mM HEPES-Tris pH 7.5, 1 μM valinomycin, 100 nM–1 µM L-[^3H]substrate) pre-warmed to 30 °C. At each time point, a 200 µl aliquot was removed and diluted 10-fold into ice-cold quench buffer (100 mM LiCl, 20 mM HEPES-Tris pH 7.5), followed by immediate filtration over nitrocellulose filters (0.22 μm pore size, Millipore). The filters were washed with ice-cold quench buffer and assayed for radioactivity using a Trilux beta counter (PerkinElmer). To establish substrate concentration–response curves, extraliposomal L-[^3H]substrate was varied between 500 nM and 100 µM, maintaining NaCl concentrations at 300 mM. For inhibitor concentration–response curves, for wild-type GltPh 100 nM L-[^3H]aspartate, and for mutant GltPh 1 µM L-[^3H]serine, was co-applied with varying inhibitor concentrations. Background levels of uptake were measured by diluting proteoliposomes into internal buffer (100 mM KCl, 20 mM HEPES-Tris pH 7.5) containing 1 µM of valinomycin and the indicated concentrations of L-[^3H]substrate.
# T2 sequence (O59010 whole entry G396S/R397C): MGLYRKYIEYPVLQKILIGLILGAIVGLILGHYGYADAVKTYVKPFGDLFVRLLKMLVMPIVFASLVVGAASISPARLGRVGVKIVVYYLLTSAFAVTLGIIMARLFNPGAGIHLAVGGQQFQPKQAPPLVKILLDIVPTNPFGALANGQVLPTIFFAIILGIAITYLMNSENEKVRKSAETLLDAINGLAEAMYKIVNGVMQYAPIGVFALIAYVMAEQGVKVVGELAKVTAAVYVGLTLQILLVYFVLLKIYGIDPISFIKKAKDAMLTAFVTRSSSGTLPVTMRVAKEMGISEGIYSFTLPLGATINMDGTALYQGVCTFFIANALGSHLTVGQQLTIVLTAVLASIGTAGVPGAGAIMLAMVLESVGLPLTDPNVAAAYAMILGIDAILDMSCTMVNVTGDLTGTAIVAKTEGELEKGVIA
SMILES,Radiolabelled substrate uptake into oocytes (in words) (ASCT1),"Transport of radiolabelled substrate into proteoliposomes (in words) (GltPh-G396S/R397C; GltPh-G396S/R397C, 100 nM L-[3H]aspartate, 1 µM L-[3H]glutamine, Na+ gradient, pH 7.5)","Reduction of L-[3H]serine transport by unlabelled competitor (in words) (GltPh-G396S/R397C; GltPh-R397C/G396S, 10 µM L-[3H]serine, 100-fold excess unlabelled amino acid)","IC50 for inhibition of L-[3H]serine transport (GltPh-G396S/R397C; GltPh-G396S/R397C, 1 µM L-[3H]serine)",EC50 (GltPh-G396S/R397C) [µM]
NC(=O)CC[C@H](N)C(=O)O [L-glutamine],no glutamine transport is observed,does not effectively transport,,,
N[C@@H](CS)C(=O)O [L-cysteine],robust L-[^35S]cysteine uptake,,to a similar extent,,
"N[C@@H](CCC(=O)Nc1ccc([N+](=O)[O-])cc1)C(=O)O [GPNA, glutamyl-p-nitroanilide]",,,,poor inhibitor,
N[C@@H](CO)C(=O)O [L-serine],observe L-[^3H]serine uptake,,,,15 ± 2

# Reference: publication PMC5750217 (Nature Communications, 2018)
